Here are results for 32 molecules from patent US8999974B2, “Acyl piperazine derivatives as TTX-S blockers” (Raqualia Pharma Inc., priority 2010, dated 2015).

Where only a bound is given, the exact number is not on record here.

The experiment deals with T1, human NaV1.3 (Homo sapiens, UniProt Q9NY46).
T1 construct: expressed in transfected cells; host or cells: HEK293
T1 sequence (Q9NY46 whole entry): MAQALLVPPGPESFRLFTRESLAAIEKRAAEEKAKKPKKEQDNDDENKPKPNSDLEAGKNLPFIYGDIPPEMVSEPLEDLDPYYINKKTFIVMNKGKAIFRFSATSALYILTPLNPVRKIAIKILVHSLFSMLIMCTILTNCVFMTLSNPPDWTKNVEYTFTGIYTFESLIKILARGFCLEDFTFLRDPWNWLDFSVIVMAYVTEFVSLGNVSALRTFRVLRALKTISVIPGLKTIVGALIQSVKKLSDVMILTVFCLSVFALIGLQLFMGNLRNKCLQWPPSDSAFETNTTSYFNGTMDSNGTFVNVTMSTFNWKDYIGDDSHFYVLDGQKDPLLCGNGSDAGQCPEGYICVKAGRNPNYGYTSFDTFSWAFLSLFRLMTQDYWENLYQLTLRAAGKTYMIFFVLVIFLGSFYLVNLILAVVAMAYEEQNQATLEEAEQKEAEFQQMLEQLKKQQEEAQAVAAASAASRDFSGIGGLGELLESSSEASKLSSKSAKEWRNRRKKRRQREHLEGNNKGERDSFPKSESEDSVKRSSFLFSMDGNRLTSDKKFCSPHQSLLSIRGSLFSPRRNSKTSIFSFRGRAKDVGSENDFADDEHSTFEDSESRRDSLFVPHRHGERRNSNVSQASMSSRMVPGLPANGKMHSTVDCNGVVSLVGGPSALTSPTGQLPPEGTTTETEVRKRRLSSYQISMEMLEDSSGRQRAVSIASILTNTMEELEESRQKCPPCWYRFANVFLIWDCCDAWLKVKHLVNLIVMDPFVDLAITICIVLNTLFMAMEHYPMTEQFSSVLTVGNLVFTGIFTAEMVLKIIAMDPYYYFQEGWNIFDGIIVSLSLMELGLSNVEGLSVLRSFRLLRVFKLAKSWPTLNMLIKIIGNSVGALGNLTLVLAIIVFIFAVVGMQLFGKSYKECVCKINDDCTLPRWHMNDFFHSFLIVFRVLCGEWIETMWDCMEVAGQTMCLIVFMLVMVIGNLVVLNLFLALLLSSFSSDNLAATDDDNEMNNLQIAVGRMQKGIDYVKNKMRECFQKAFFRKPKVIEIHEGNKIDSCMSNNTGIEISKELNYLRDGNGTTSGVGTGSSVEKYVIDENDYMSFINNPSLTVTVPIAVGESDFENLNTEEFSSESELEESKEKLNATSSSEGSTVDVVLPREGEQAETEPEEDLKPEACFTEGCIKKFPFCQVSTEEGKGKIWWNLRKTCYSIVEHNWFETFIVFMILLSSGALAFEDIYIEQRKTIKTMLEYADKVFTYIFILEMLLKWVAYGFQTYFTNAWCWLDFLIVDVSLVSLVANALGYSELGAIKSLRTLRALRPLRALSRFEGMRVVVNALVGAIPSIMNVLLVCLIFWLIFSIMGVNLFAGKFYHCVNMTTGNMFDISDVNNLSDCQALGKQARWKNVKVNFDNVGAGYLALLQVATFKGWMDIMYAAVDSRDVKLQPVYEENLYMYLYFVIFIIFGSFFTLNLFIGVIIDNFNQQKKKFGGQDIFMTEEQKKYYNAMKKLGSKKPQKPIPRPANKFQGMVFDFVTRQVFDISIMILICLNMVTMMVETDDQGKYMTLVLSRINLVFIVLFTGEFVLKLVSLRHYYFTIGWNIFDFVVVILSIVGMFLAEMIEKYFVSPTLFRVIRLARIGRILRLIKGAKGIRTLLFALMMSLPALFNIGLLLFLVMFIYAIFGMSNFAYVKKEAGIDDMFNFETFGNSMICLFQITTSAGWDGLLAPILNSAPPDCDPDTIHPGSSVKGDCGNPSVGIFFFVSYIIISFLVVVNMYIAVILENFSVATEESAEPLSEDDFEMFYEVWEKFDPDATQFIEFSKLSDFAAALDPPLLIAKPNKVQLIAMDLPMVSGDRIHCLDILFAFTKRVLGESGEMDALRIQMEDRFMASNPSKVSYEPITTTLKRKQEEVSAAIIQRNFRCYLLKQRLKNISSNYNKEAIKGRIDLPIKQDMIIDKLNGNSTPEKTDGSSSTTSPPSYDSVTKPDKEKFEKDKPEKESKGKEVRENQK
Description: FRET assay (EFS, FDSS) on HEK293 cells expressing human NaV1.3 channels. The experiment is classed as cell-based. The note with it: FRET assay, HEK293 cells expressing human NaV1.3; read-out: IC50 against Nav1.3. As for the experimental part: This screen was used to determine the effects of compounds on human NaV1.3, human Nav1.7, and human Nav1.5 channels, utilising electrical field stimulation (EFS) system in 96-well plate format on FDSS (Hamamatsu Photonics) platform. The change of membrane potential was monitored with FRET dye pair, oxonol (DiSBAC2(3)) and coumarin (CC2-DMPE).
Each HEK293 cells expressing human NaV1.3 channels and HEK293 cells expressing human NaV1.5 channels were grown in T225 flasks, in a 5% CO2 humidified incubator to about 80% confluence. Media composition consisted of Dulbecco's Modified Eagle Medium (high glucose), 10% FCS, 100 units/ml Penicillin, 100 microgram/ml Streptomycin and 500 microgram/ml Geneticine.
Protocol: • Seeded each cell lines (1×10^5 cells/well) into poly-D-lysine coated 96-well plates prior to experimentation. • Incubated at 37° C. in 5% CO2 for 24 hours. • Washed each well with assay buffer (140 mM NaCl, 4.5 mM KCl, 10 mM D-Glucose, 2 mM CaCl2, 1 mM MgCl2, 10 mM HEPES, pH 7.4 adjusted with NaOH) twice. • Added 1st loading solution containing 10 microM CC2-DMPE and 0.06% Pluronic F-127 in assay buffer. • Incubated the plate at room temperature in dark for 1 hour. • Removed 1st loading solution and added 2nd loading solution containing 15 microM DiSBAC2(3), 0.555 mM VABSC-1 and 0.004% Pluronic F-127 in assay buffer. • Placed the plate under the dark at room temperature for 25 minutes. • Added compound solutions into the assay plate. • Set the assay plate in FDSS and placed an EFS device on the plate. • Measured EFS-induced fluorescent response by FDSS.
The data were analyzed and reported as normalized ratios of intensities measured at […]. The process of calculating these ratios was performed as follows:
[formula] This analysis was performed using a computerized specific program designed for FDSS generated data. Fluorescence ratio values were plotted using XLfit to determine an IC50 value for each compound.
On to `O=C(Cc1noc2ccccc12)N1CCN(c2cc(OCC(F)(F)F)ncn2)CC1` [Example 107, 2-(benzo[d]isoxazol-3-yl)-1-(4-(6-(2,2,2-trifluoroethoxy)pyrimidin-4-yl)piperazin-1-yl)ethanone], for which the IC50 was less than 3 µM.

With `O=C(Cc1noc2ccccc12)N1CCN(c2cc(OC3CCC3)ncn2)CC1` [Example 111, 2-(benzo[d]isoxazol-3-yl)-1-(4-(6-cyclobutoxypyrimidin-4-yl)piperazin-1-yl)ethanone], the IC50 is less than 3 µM.

As to `CC(C)COc1cc(N2CCN(C(=O)Cc3ccc(F)cc3)CC2)ncn1` [Example 119, 2-(4-fluorophenyl)-1-(4-(6-isobutoxypyrimidin-4-yl)piperazin-1-yl)ethanone], the IC50 is less than 3 µM.

In the case of `CC(C)COc1cc(N2CCN(C(=O)CS(=O)(=O)c3ccc(Cl)cc3)CC2)ncn1` [Example 121, 2-((4-chlorophenyl)sulfonyl)-1-(4-(6-isobutoxypyrimidin-4-yl)piperazin-1-yl)ethanone], the concentration for half-maximal inhibition (IC50) is less than 3 µM.

In the case of `CC(C)COc1cc(N2CCN(C(=O)COc3ccc4cccnc4c3)CC2)ncn1` [Example 127, 1-(4-(6-isobutoxypyrimidin-4-yl)piperazin-1-yl)-2-(quinolin-7-yloxy)ethanone], the 50% inhibitory concentration (IC50) was less than 3 µM.

Regarding `CC(C)COc1cc(N2CCN(C(=O)COc3cccc4ccncc34)CC2)ncn1` [Example 128, 1-(4-(6-isobutoxypyrimidin-4-yl)piperazin-1-yl)-2-(isoquinolin-8-yloxy)ethanone], the half-maximal inhibitory concentration (IC50) is less than 3 µM.

`CC(C)COc1cc(N2CCN(C(=O)c3cc(-c4ccccc4)nn3C)CC2)ncn1` [Example 134, (4-(6-isobutoxpyrimidin-4-yl)piperazin-1-yl)(1-methyl-3-phenyl-1H-pyrazol-5-yl)methanone]: the IC50 was less than 3 µM.

With `Cc1c(C(=O)N2CCN(c3cc(OCC(C)C)ncn3)CC2)cnn1-c1ccccc1` [Example 135], the concentration for half-maximal inhibition (IC50) was less than 3 µM.

For `Cc1c(C(=O)N2CCN(c3cc(OCC(C)C)ncn3)CC2)nnn1-c1ccccc1` [Example 136, (4-(6-isobutoxpyrimidin-4-yl)piperazin-1-yl)(5-methyl-1-phenyl-1H-1,2,3-triazol-4-yl)methanone], the half-inhibitory concentration (IC50) is less than 3 µM.

With `O=C(CCOc1ccc(F)cc1)N1CCN(c2cc(OC3CCC3)ncn2)CC1` [Example 140, 1-(4-(6-cylcobutoxypyrimidin-4-yl)piperazin-1-yl)-3-(4-fluorophenoxy)propan-1-one], the IC50 is less than 3 µM.

Turning to `CC(C)COc1cc(N2CCN(C(=O)COc3cncc(Cl)c3)CC2)ncn1` [Example 144, 2-((5-chloropyridin-3-yl)oxy)-1-(4-(6-isobutoxypyrimidin-4-yl)piperazin-1-yl)ethanone], the half-inhibitory concentration (IC50) was less than 3 µM.

With `Cc1c(C(=O)N2CCN(c3cc(OCC(F)(F)F)ncn3)CC2)cnn1-c1ccccc1` [Example 148, (5-methyl-1-phenyl-1H-pyrazol-4-yl)(4-(6-(2,2,2-trifluoroethoxy)pyrimidin-4-yl)piperazin-1-yl)methanone], the IC50 is less than 3 µM.

Take `CC(C)COc1cc(N2CCN(C(=O)[C@@H](C)Oc3ccc(F)cc3)CC2)ncn1` [Example 152, (R)-2-(4-fluorophenoxy)-1-(4-(6-isobutoxypyrimidin-4-yl)piperazin-1-yl)propan-1-one]: the half-inhibitory concentration (IC50) was less than 3 µM.

As to `O=C(COc1cccc(F)c1)N1CCN(c2cc(OCC(F)(F)F)ncn2)CC1` [Example 155, 2-(3-fluorophenoxy)-1-(4-(6-(2,2,2-trifluoroethoxy)pyrimidin-4-yl)piperazin-1-yl)ethanone], the concentration for half-maximal inhibition (IC50) is less than 3 µM.

Regarding `O=C(CN1CCc2ccccc2C1=O)N1CCN(c2cc(OCC(F)(F)F)ncn2)CC1` [Example 157, 2-(2-oxo-2-(4-(6-(2,2,2-trifluoroethoxy)pyrimidin-4-yl)piperazin-1-yl)ethyl)-3,4-dihydroisoquinolin-1(2H)-one], the IC50 was less than 3 µM.

Turning to `CC(C)Oc1cc(N2CCN(C(=O)c3cc(-c4ccccc4)nn3C)CC2)ncn1` [Example 164, (4-(6-isopropoxypyrimidin-4-yl)piperazin-1-yl)(1-methyl-3-phenyl-1H-pyrazol-5-yl)methanone], the IC50 is less than 3 µM.

Turning to `CC(C)COc1cc(N2CCN(C(=O)c3cnn(Cc4ccccc4)c3)CC2)ncn1` [Example 171, (1-benzyl-1H-pyrazol-4-yl)(4-(6-isobutoxypyrimidin-4-yl)piperazin-1-yl)methanone], the half-inhibitory concentration (IC50) is less than 3 µM.

As for `Cc1nn(-c2ccccc2)nc1C(=O)N1CCN(c2cc(OCC(C)C)ncn2)CC1` [Example 182, (4-(6-isobutoxypyrimidin-4-yl)piperazin-1-yl)(5-methyl-2-phenyl-2H-1,2,3-triazol-4-yl)methanone], the half-maximal inhibitory concentration (IC50) was less than 3 µM.

As for `COc1ccccc1-n1cc(C(=O)N2CCN(c3cc(OCC(C)C)ncn3)CC2)cn1` [Example 183, (4-(6-isobutoxypyrimidin-4-yl)piperazin-1-yl)(1-(2-methoxyphenyl)-1H-pyrazol-4-yl)methanone], the 50% inhibitory concentration (IC50) was less than 3 µM.

For `CC(C)COc1cc(N2CCN(C(=O)c3cnn(-c4ccccc4)c3N)CC2)ncn1` [Example 184, (5-amino-1-phenyl-1H-pyrazol-4-yl)(4-(6-isobutoxypyrimidin-4-yl)piperazin-1-yl)methanone], the IC50 is less than 3 µM.

As for `CC(C)COc1cc(N2CCN(C(=O)c3cc(-c4ccccc4)ncn3)CC2)ncn1` [Example 185, (4-(6-isobutoxypyrimidin-4-yl)piperazin-1-yl)(6-phenylpyrimidin-4-yl)methanone], the IC50 is less than 3 µM.

`CC(C)COc1cc(N2CCN(C(=O)c3cc(-c4cccnc4)nn3C)CC2)ncn1` [Example 189, (4-(6-isobutoxypyrimidin-4-yl)piperazin-1-yl)(1-methyl-3-(pyridin-3-yl)-1H-pyrazol-5-yl)methanone]: the IC50 was less than 3 µM.

Take `CC(C)COc1cc(N2CCN(C(=O)c3csc(-c4cccnc4)n3)CC2)ncn1` [Example 190, (4-(6-isobutoxypyrimidin-4-yl)piperazin-1-yl)(2-(pyridin-3-yl)thiazol-4-yl)methanone]: the IC50 is less than 3 µM.

In the case of `CC(C)COc1cc(N2CCN(C(=O)c3csc(-c4ccccn4)n3)CC2)ncn1` [Example 191, (4-(6-isobutoxypyrimidin-4-yl)piperazin-1-yl)(2-(pyridin-2-yl)thiazol-4-yl)methanone], the IC50 is less than 3 µM.

Consider `CC(C)Oc1cc(N2CCN(C(=O)c3csc(-c4ccccn4)n3)CC2)ncn1` [Example 193, (4-(6-isopropoxypyrimidin-4-yl)piperazin-1-yl)(2-(pyridin-2-yl)thiazol-4-yl)methanone], for which the half-maximal inhibitory concentration (IC50) is less than 3 µM.

On to `Cc1c(C(=O)N2CCN(c3cc(OCC(C)C)ncn3)CC2)nnn1-c1ccc(F)cc1` [Example 202, (1-(4-fluorophenyl)-5-methyl-1H-1,2,3-triazol-4-yl)(4-(6-isobutoxypyrimidin-4-yl)piperazin-1-yl)methanone], for which the IC50 is less than 3 µM.

For `Cc1c(C(=O)N2CCN(c3cc(OC(C)C)ncn3)CC2)nnn1-c1ccc(F)cc1` [Example 203, (1-(4-fluorophenyl)-5-methyl-1H-1,2,3-triazol-4-yl)(4-(6-isopropoxypyrimidin-4-yl)piperazin-1-yl)methanone], the 50% inhibitory concentration (IC50) was less than 3 µM.

Consider `Cc1c(C(=O)N2CCN(c3cc(OC4CCC4)ncn3)CC2)nnn1-c1ccc(F)cc1` [Example 204, (4-(6-cyclobutoxypyrimidin-4-yl)piperazin-1-yl)(1-(4-fluorophenyl)-5-methyl-1H-1,2,3-triazol-4-yl)methanone], for which the half-maximal inhibitory concentration (IC50) was less than 3 µM.

As for `Cc1c(C(=O)N2CCN(c3cc(OCC(F)(F)F)ncn3)CC2)nnn1-c1ccc(F)cc1` [Example 205, (1-(4-fluorophenyl)-5-methyl-1H-1,2,3-triazol-4-yl)(4-(6-(2,2,2-trifluoroethoxy)pyrimidin-4-yl)piperazin-1-yl)methanone], the IC50 is less than 3 µM.

Regarding `CC(C)COc1cc(N2CCN(C(=O)c3cn(-c4ccccc4)nn3)CC2)ncn1` [Example 206, (4-(6-isobutoxypyrimidin-4-yl)piperazin-1-yl)(1-phenhyl-1H-1,2,3-triazol-4-yl)methanone], the half-inhibitory concentration (IC50) was less than 3 µM.

Turning to `CC(C)COc1cc(N2CCN(C(=O)c3nn(C)c4ccc(F)cc34)CC2)ncn1` [Example 209, (5-fluoro-1-methyl-1H-indazol-3-yl)(4-(6-isobutoxypyrimidin-4-yl)piperazin-1-yl)methanone], the half-maximal inhibitory concentration (IC50) is less than 3 µM.

Take `CC(C)Oc1cc(N2CCN(C(=O)c3nn(C)c4ccc(F)cc34)CC2)ncn1` [Example 210, (5-fluoro-1-methyl-1H-indazol-3-yl)(4-(6-isopropoxypyrimidin-4-yl)piperazin-1-yl)methanone]: the concentration for half-maximal inhibition (IC50) was less than 3 µM.
